Experiments:
Test in all cases: IC50 for competition of protein binding to Kinobeads
Settings in all cases: assay detail: Kinobeads competition in P. falciparum blood-stage lysate
UniProt Q8IAW5 = molecular target: UniProt Q8IAW5
UniProt Q8I2W2 = molecular target: UniProt Q8I2W2
UniProt Q8I249 = molecular target: UniProt Q8I249
UniProt C0H5L6 = molecular target: UniProt C0H5L6
UniProt C6KSW5 = molecular target: UniProt C6KSW5
UniProt Q6ZMA7 = molecular target: UniProt Q6ZMA7
UniProt Q8IE81 = molecular target: UniProt Q8IE81
UniProt O97285 = molecular target: UniProt O97285
UniProt O97247 = molecular target: UniProt O97247
UniProt Q8ID28 = molecular target: UniProt Q8ID28
UniProt Q8I5D4 = molecular target: UniProt Q8I5D4
UniProt Q8ID85 = molecular target: UniProt Q8ID85
UniProt Q8IJC6 = molecular target: UniProt Q8IJC6
UniProt C6KT56 = molecular target: UniProt C6KT56
UniProt Q8IEM3 = molecular target: UniProt Q8IEM3
UniProt Q76NN6 = molecular target: UniProt Q76NN6
UniProt Q8I3R0 = molecular target: UniProt Q8I3R0
UniProt Q9U0N4 = molecular target: UniProt Q9U0N4
UniProt Q8I492 = molecular target: UniProt Q8I492
UniProt Q8IDV1 = molecular target: UniProt Q8IDV1
UniProt Q8I320 = molecular target: UniProt Q8I320
UniProt Q8IBJ1 = molecular target: UniProt Q8IBJ1
UniProt Q8I0W9 = molecular target: UniProt Q8I0W9
UniProt Q76NM6 = molecular target: UniProt Q76NM6
UniProt Q8I608 = molecular target: UniProt Q8I608
UniProt Q8IM16 = molecular target: UniProt Q8IM16
UniProt O96220 = molecular target: UniProt O96220
UniProt Q8I3X4 = molecular target: UniProt Q8I3X4
UniProt Q8IKS3 = molecular target: UniProt Q8IKS3
UniProt Q8ILL2 = molecular target: UniProt Q8ILL2
UniProt Q7K6A4 = molecular target: UniProt Q7K6A4
UniProt Q8IAU1 = molecular target: UniProt Q8IAU1
UniProt Q8IC06 = molecular target: UniProt Q8IC06
UniProt Q8IL56 = molecular target: UniProt Q8IL56
UniProt Q7K6B0 = molecular target: UniProt Q7K6B0
UniProt Q8IIK2 = molecular target: UniProt Q8IIK2
UniProt Q7KQL9 = molecular target: UniProt Q7KQL9
UniProt Q8ILW6 = molecular target: UniProt Q8ILW6
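Further: native unpurified kinases from lysate captured on beads bearing immobilized kinase inhibitors, with bead-bound kinases quantified by mass spectrometry across compound doses.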

Chain of UniProt Q8IM16 (Q8IM16 whole entry): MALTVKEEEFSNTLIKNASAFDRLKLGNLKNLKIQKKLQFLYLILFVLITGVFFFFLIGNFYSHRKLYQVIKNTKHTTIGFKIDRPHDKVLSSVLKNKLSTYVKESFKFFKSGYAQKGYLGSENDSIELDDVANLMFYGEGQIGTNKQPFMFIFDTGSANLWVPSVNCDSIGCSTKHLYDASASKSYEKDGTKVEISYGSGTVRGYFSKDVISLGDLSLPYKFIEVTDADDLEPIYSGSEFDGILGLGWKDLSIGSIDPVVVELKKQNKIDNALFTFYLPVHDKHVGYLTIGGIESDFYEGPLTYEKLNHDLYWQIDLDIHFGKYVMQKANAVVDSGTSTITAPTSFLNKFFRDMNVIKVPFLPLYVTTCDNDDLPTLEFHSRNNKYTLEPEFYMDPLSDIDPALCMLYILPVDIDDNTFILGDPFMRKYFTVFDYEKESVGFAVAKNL
Chain of UniProt Q76NM6 (Q76NM6 whole entry): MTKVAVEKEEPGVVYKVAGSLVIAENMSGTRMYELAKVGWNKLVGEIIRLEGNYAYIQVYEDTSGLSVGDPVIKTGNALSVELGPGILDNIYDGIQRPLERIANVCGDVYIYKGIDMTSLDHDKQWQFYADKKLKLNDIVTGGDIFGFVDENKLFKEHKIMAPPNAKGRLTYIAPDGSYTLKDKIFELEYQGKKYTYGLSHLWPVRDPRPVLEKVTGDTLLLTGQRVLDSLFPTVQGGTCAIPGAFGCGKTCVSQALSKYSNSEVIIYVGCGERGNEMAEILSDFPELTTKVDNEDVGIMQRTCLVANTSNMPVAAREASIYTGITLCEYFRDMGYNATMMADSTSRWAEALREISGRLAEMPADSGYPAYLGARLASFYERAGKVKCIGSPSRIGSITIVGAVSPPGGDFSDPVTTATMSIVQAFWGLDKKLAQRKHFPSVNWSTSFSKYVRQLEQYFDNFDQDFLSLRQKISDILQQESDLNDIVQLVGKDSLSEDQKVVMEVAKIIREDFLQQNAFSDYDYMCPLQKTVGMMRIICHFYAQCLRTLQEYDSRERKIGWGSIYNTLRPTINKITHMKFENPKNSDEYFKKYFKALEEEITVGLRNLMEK
Chain of UniProt Q8ILW6 (Q8ILW6 whole entry): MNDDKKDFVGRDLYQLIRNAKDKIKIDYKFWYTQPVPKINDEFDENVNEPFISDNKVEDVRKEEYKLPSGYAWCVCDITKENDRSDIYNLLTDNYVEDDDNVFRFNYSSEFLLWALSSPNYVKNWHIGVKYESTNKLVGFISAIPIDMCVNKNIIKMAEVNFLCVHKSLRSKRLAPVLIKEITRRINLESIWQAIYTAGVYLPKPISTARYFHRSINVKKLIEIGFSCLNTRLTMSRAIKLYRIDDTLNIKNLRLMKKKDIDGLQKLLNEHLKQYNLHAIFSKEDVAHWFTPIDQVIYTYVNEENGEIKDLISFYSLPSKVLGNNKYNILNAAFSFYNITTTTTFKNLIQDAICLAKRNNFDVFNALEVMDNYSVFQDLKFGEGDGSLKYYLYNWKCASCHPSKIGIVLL
Chain of UniProt Q6ZMA7 (Q6ZMA7 whole entry): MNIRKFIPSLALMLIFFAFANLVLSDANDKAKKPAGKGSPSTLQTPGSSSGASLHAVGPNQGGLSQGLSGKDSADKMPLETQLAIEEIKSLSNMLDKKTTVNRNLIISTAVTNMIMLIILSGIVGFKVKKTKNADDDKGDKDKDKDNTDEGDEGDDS
Chain of UniProt Q7KQL9 (Q7KQL9 whole entry): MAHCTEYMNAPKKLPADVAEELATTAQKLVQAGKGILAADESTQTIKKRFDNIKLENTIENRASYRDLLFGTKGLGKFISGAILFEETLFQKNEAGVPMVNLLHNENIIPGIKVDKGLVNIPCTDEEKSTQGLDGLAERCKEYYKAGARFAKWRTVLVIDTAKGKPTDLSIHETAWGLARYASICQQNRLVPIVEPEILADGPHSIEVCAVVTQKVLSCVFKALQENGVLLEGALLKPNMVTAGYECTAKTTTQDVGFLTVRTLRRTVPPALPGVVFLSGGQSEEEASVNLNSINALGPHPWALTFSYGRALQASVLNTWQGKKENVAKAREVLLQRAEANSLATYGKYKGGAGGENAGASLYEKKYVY
Chain of UniProt Q8I3X4 (Q8I3X4 whole entry): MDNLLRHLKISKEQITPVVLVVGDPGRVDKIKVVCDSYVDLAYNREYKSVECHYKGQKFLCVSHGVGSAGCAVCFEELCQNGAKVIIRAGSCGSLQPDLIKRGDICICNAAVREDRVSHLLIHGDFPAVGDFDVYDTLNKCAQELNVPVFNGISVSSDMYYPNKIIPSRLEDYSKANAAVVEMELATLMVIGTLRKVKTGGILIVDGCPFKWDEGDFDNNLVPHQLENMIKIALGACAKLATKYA

`O=c1[nH]c2ccc(Cl)cc2c(NC2CN3CCC2CC3)c1-c1nc2ccccc2[nH]1` (stereo not drawn) [CHIR-124] showed an IC50 (UniProt Q8IAW5) of over 20 µM, an IC50 (UniProt Q8I2W2) of over 20 µM and an IC50 (UniProt Q8I249) of over 20 µM. It also gave an IC50 (UniProt C0H5L6) of over 20 µM, an IC50 (UniProt C6KSW5) of over 20 µM and an IC50 (UniProt Q6ZMA7) of over 20 µM. It also gave an IC50 (UniProt Q8IE81) of over 20 µM, an IC50 (UniProt O97285) of over 20 µM and an IC50 (UniProt O97247) of over 20 µM. For the same compound, the IC50 (UniProt Q8ID28) was over 20 µM, the IC50 (UniProt Q8I5D4) was 7.85 µM and the IC50 (UniProt Q8ID85) was over 20 µM. It also gave an IC50 (UniProt Q8IJC6) of over 20 µM, an IC50 (UniProt C6KT56) of over 20 µM and an IC50 (UniProt Q8IEM3) of over 20 µM. For the same compound, the IC50 (UniProt Q76NN6) was over 20 µM, the IC50 (UniProt Q8I3R0) was over 20 µM and the IC50 (UniProt Q9U0N4) was over 20 µM. The IC50 (UniProt Q8I492) was over 20 µM, the IC50 (UniProt Q8IDV1) was over 20 µM and the IC50 (UniProt Q8I320) was over 20 µM. It also gave an IC50 (UniProt Q8IBJ1) of over 20 µM, an IC50 (UniProt Q8I0W9) of over 20 µM and an IC50 (UniProt Q76NM6) of over 20 µM. For the same compound, the IC50 (UniProt Q8I608) was over 20 µM, the IC50 (UniProt Q8IM16) was over 20 µM and the IC50 (UniProt O96220) was over 20 µM. For the same compound, the IC50 (UniProt Q8I3X4) was over 20 µM, the IC50 (UniProt Q8IKS3) was over 20 µM and the IC50 (UniProt Q8ILL2) was over 20 µM. For the same compound, the IC50 (UniProt Q7K6A4) was over 20 µM, the IC50 (UniProt Q8IAU1) was over 20 µM and the IC50 (UniProt Q8IC06) was over 20 µM. The IC50 (UniProt Q8IL56) was over 20 µM, the IC50 (UniProt Q7K6B0) was over 20 µM and the IC50 (UniProt Q8IIK2) was over 20 µM. For the same compound, the IC50 (UniProt Q7KQL9) was over 20 µM and the IC50 (UniProt Q8ILW6) was over 20 µM.

From the supplement of paper PMC13386468
